# Assay results published in patent US12310364B2, “Safened compositions comprising pyridine carboxylate herbicides and cloquintocet” (Corteva Agriscience LLC, priority 2018, dated 2025).
# Where “and” joins values, the source holds several entries; their conditions need not be identical. Identical values can stand only once.
# Tests used:
# Format in all cases: in vivo
# [1] = test system: Polygonum convulvus (wild buckwheat), POLCO; assay: Greenhouse postemergence trial, visual injury on wild buckwheat
# Description: (§1) Greenhouse Trial Methodology—Evaluation of Postemergence Herbicidal Safening in Crops
# (§2) Seeds of the desired test plant species were planted in a 90:10% v/v (volume/volume) mixture of PRO-MIX® BX (Premier Tech Horticulture, Quakertown, PA, USA) and PROFILE® GREENS GRADE™ (Profile Products LLC, Buffalo Grove, IL, USA) planting mixture, which typically has a pH of 5.2 to 6.2 and an organic matter content of at least 50 percent, in plastic pots with a surface area of 103.2 square centimeters (cm^2). When required to ensure good germination and healthy plants, a fungicide treatment and/or other chemical or physical treatment was applied. The plants were grown for 7-36 days (d) in a greenhouse with an approximate 14-hour (h) photoperiod which was maintained at about 23° C. during the day and 22° C. during the night. Nutrients and water were added on a regular basis and supplemental lighting was provided with overhead metal halide 1000-Watt lamps as necessary. The plants were employed for testing when they reached the second or third true leaf stage.
# (§3) Emulsifiable concentrates of each of each pyridine carboxylate herbicide (Compound A or Compound B) were prepared at 100 grams acid equivalent per liter (g ae/L). An aliquot of each emulsifiable concentrate was placed in a 25 mL glass vial and diluted with an aqueous mixture of 1.25% (v/v) ACTIROB® B esterified rapeseed oil (Bayer Crop Science, Research Triangle Park, NC, USA) or MSO® Concentrate with LECI-TECH® methylated soybean oil (Loveland Products, Loveland, CO, USA) to obtain concentrated stock solutions at the highest application rate for each herbicide, based upon a 12 milliliter (mL) application volume at a rate of 187 liters per hectare (L/ha). The concentrated stock solutions were further diluted with an aqueous mixture of 1.25% v/v ACTIROB® B or MSO® Concentrate with LECI-TECH® to obtain stock solutions at reduced application rates for each herbicide. Spray solutions of the herbicide combinations (Compound A or Compound B plus safener) were prepared by adding weighed amounts or aliquots of the safener to the stock solutions of Compound A or Compound B to form 12-mL spray solutions in two-way combinations.
# The spray solutions were applied to the plant material with an overhead Mandel track sprayer equipped with 8002E nozzles calibrated to deliver 187 L/ha over an application area of 0.503 square meters (m^2) at a spray height of 18 inches (43 centimeters (cm)) above the average plant canopy. Control plants were sprayed in the same manner with the solvent blank. All herbicide (component a) application rates are given as “g ae/ha” and all safener (component b) application rates are given as “g ai/ha.”
# (§4) The treated plants and control plants were placed in a greenhouse as described above and watered by sub-irrigation to prevent wash-off of the test compounds. After 20-22 d, the condition of the test plants as compared with that of the control plants was determined visually and scored on a scale of 0 to 100 percent where 0 corresponds to no injury and 100 corresponds to complete kill.
# [2] = test system: Triticum aestivum (spring wheat), TRZAS; assay: Greenhouse postemergence safening trial, visual injury on spring wheat
# Procedure: (§5) Greenhouse Trial Methodology-Evaluation of Postemergence Herbicidal […] in Crops […] When required to ensure good germination and healthy plants, a fungicide treatment and/or other chemical or physical treatment was applied. The plants were grown for 7-36 days (d) in a greenhouse with an approximate 14-hour (h) photoperiod which was maintained at about 23° C. during the day and 22° C. during the night. Nutrients and water were added on a regular basis and supplemental lighting was provided with overhead metal halide 1000-Watt lamps as necessary. The plants were employed for testing when they reached the second or third true leaf stage. Emulsifiable concentrates of each of each pyridine carboxylate herbicide (Compound A or Compound B) were prepared at 100 grams acid equivalent per liter (g ae/L). […] The concentrated stock solutions were further diluted with an aqueous mixture of 1.25% […] or MSO® Concentrate with LECI-TECH® to obtain stock solutions at reduced application rates for each herbicide. Spray solutions of the herbicide combinations (Compound A or Compound B plus safener) were prepared by adding weighed amounts or aliquots of the safener to the stock solutions of Compound A or Compound B to form 12-mL spray solutions in two-way combinations. […] Control plants were sprayed in the same manner with the solvent blank. All herbicide (component a) application rates are given as “g ae/ha” and all safener (component b) application rates are given as “g ai/ha.” The treated plants and control plants were placed in a greenhouse as described above and watered by sub-irrigation to prevent wash-off of the test compounds.
# [3] = test system: blackgrass (ALOMY, Alopecurus myosuroides); assay: Greenhouse postemergence trial, visual injury on blackgrass; conditions: Table 19
# Description: as §1, §2
# as §3, with “combinations. […]” for “combinations.”
# as §4
# [4] = test system: Avena sativa (common oat), AVESA; assay: Greenhouse postemergence safening trial, visual injury on common oat
# Procedure: as §5
# [5] = test system: velvetleaf (ABUTH, Abutilon theophrasti); assay: Greenhouse postemergence trial, visual injury on velvetleaf; conditions: Table 19
# Description: as §1, §2
# as §3, with “combinations. […]” for “combinations.”
# as §4
# [6] = test system: giant foxtail (SETFA, Setaria faberi); assay: Greenhouse postemergence trial, visual injury on giant foxtail; conditions: Table 19
# Description: as §1, §2
# as §3, with “combinations. […]” for “combinations.”
# as §4
# [7] = test system: Salsola kali (Russian thistle), SASKR; assay: Greenhouse postemergence trial, visual injury on Russian thistle
# Procedure: as §5
# [8] = test system: Triticum aestivum (winter wheat), TRZAW; assay: Greenhouse postemergence safening trial, visual injury on winter wheat
# Procedure: as §5
# rice (ORYSA) = assay: Greenhouse postemergence safening trial, visual injury on rice; conditions: Table 19
# Description: as §1, §2
# as §3, with “combinations. […]” for “combinations.”
# as §4
# [9] = test system: Italian ryegrass (LOLMU, Lolium multiflorum); assay: Greenhouse postemergence trial, visual injury on Italian ryegrass; conditions: Table 19
# Description: as §1, §2
# as §3, with “combinations. […]” for “combinations.”
# as §4
# [10] = test system: kochia (KCHSC, Kochia scoparia); assay: Greenhouse postemergence trial, visual injury on kochia; conditions: Table 19
# Description: as §1, §2
# as §3, with “combinations. […]” for “combinations.”
# as §4
# [11] = Compound A 20 g/ha alone, Table 19
# [12] = Compound A 20 g/ha alone, Table 15
# [13] = Compound A 40 g/ha alone, Table 14
# [14] = Compound A 40 g/ha alone, Table 16
# [15] = CQC-mexyl 20 g/ha alone, Table 19
# [16] = CQC-mexyl 40 g/ha alone, Table 19
# [17] = CQC-mexyl 80 g/ha alone, Table 19
# [18] = CQC-mexyl 5 g/ha alone, Table 15
# [19] = CQC-mexyl 10 g/ha alone, Table 15
# [20] = CQC-mexyl 10 g/ha alone, Table 16
# [21] = CQC-mexyl 20 g/ha alone, Table 15
# [22] = CQC-mexyl 20 g/ha alone, Table 16
# [23] = CQC-mexyl 40 g/ha alone, Table 14
# [24] = CQC-mexyl 40 g/ha alone, Table 15
# [25] = CQC-mexyl 40 g/ha alone, Table 16
# [26] = CQC-mexyl 80 g/ha alone, Table 16
smiles,measurement,setting,value
"N#CCOC(=O)c1nc(-c2ccc3cc[nH]c3c2F)c(F)c(N)c1Cl [Compound A, cyanomethyl 4-amino-3-chloro-5-fluoro-6-(7-fluoro-1H-indol-6-yl)pyridine-2-carboxylate]","% visual injury, Ob",[1]; [11],100%
same,"% visual injury, Ob",[2]; [12],15%
same,"% visual injury, Ob",[2]; [13],45%
same,"% visual injury, Ob",[2]; [14],40%
same,"% visual injury, Ob",[2]; herbicide alone 20 g/ha,15% and 25%
same,"% visual injury, Ob",[2]; herbicide alone 40 g/ha,45% and 40% and 23%
same,"% visual injury, Ob",[3]; Compound A 20 g/ha alone,0%
same,"% visual injury, Ob",[4]; [13],0%
same,"% visual injury, Ob",[4]; herbicide alone 40 g/ha,0%
same,"% visual injury, Ob",[5]; Compound A 20 g/ha alone,95%
same,"% visual injury, Ob",[6]; Compound A 20 g/ha alone,65%
same,"% visual injury, Ob",[7]; herbicide alone 20 g/ha,60%
same,"% visual injury, Ob",[8]; [12],20%
same,"% visual injury, Ob",[8]; [11],25%
same,"% visual injury, Ob",[8]; [13],35%
same,"% visual injury, Ob",[8]; [14],35%
same,"% visual injury, Ob",[8]; herbicide alone 20 g/ha,20%
same,% visual injury Δ,[8]; herbicide alone 40 g/ha,0%
same,"% visual injury, Ob",[8]; herbicide alone 40 g/ha,35% and 25%
same,"% visual injury, Ob",rice (ORYSA); Compound A 20 g/ha alone,10%
same,"% visual injury, Ob",[9]; Compound A 20 g/ha alone,5%
same,"% visual injury, Ob",[10]; Compound A 20 g/ha alone,97%
"CCCCCC(C)OC(=O)COc1ccc(Cl)c2cccnc12 (stereo not shown) [CQC-mexyl, cloquintocet-mexyl]","% visual injury, Ob",[1]; [15],0%
same,"% visual injury, Ob",[1]; [16],0%
same,"% visual injury, Ob",[1]; [17],0%
same,"% visual injury, Ob",[1]; safener alone 5 g/ha,0%
same,"% visual injury, Ob",[1]; safener alone 10 g/ha,0%
same,"% visual injury, Ob",[1]; safener alone 20 g/ha,0%
same,"% visual injury, Ob",[1]; safener alone 40 g/ha,0%
same,"% visual injury, Ob",[2]; [18],0%
same,"% visual injury, Ob",[2]; [19],0%
same,"% visual injury, Ob",[2]; [20],0%
same,"% visual injury, Ob",[2]; [21],0%
same,"% visual injury, Ob",[2]; [22],0%
same,"% visual injury, Ob",[2]; [23],0%
same,"% visual injury, Ob",[2]; [24],0%
same,"% visual injury, Ob",[2]; [25],0%
same,"% visual injury, Ob",[2]; [26],0%
same,"% visual injury, Ob",[2]; safener alone 5 g/ha,0%
same,"% visual injury, Ob",[2]; safener alone 10 g/ha,0%
same,"% visual injury, Ob",[2]; safener alone 20 g/ha,0%
same,"% visual injury, Ob",[2]; safener alone 40 g/ha,0%
same,"% visual injury, Ob",[3]; CQC-mexyl 20 g/ha alone,0%
same,"% visual injury, Ob",[3]; CQC-mexyl 40 g/ha alone,0%
same,"% visual injury, Ob",[3]; CQC-mexyl 80 g/ha alone,0%
same,"% visual injury, Ob",[4]; [23],0%
same,"% visual injury, Ob",[4]; safener alone 40 g/ha,0%
same,"% visual injury, Ob",[5]; CQC-mexyl 20 g/ha alone,0%
same,"% visual injury, Ob",[5]; CQC-mexyl 40 g/ha alone,0%
same,"% visual injury, Ob",[5]; CQC-mexyl 80 g/ha alone,0%
same,"% visual injury, Ob",[6]; CQC-mexyl 20 g/ha alone,0%
same,"% visual injury, Ob",[6]; CQC-mexyl 40 g/ha alone,0%
same,"% visual injury, Ob",[6]; CQC-mexyl 80 g/ha alone,0%
same,"% visual injury, Ob",[7]; safener alone 5 g/ha,0%
same,"% visual injury, Ob",[7]; safener alone 10 g/ha,0%
same,"% visual injury, Ob",[7]; safener alone 20 g/ha,0%
same,"% visual injury, Ob",[7]; safener alone 40 g/ha,0%
same,"% visual injury, Ob",[8]; [18],0%
same,"% visual injury, Ob",[8]; [19],0%
same,"% visual injury, Ob",[8]; [20],0%
same,"% visual injury, Ob",[8]; [21],0%
same,"% visual injury, Ob",[8]; [22],0%
same,"% visual injury, Ob",[8]; [15],0%
same,"% visual injury, Ob",[8]; [23],0%
same,"% visual injury, Ob",[8]; [24],0%
same,"% visual injury, Ob",[8]; [25],0%
same,"% visual injury, Ob",[8]; [16],0%
same,"% visual injury, Ob",[8]; [26],0%
same,"% visual injury, Ob",[8]; [17],0%
same,"% visual injury, Ob",[8]; safener alone 40 g/ha,0%
same,"% visual injury, Ob",rice (ORYSA); CQC-mexyl 20 g/ha alone,0%
same,"% visual injury, Ob",rice (ORYSA); CQC-mexyl 40 g/ha alone,0%
same,"% visual injury, Ob",rice (ORYSA); CQC-mexyl 80 g/ha alone,0%
same,"% visual injury, Ob",[9]; CQC-mexyl 20 g/ha alone,0%
same,"% visual injury, Ob",[9]; CQC-mexyl 40 g/ha alone,0%
same,"% visual injury, Ob",[9]; CQC-mexyl 80 g/ha alone,0%
same,"% visual injury, Ob",[10]; CQC-mexyl 20 g/ha alone,0%
same,"% visual injury, Ob",[10]; CQC-mexyl 40 g/ha alone,0%
same,"% visual injury, Ob",[10]; CQC-mexyl 80 g/ha alone,0%
